Measured values from patent publication US6710090B2, “Inhibitory or blocking agents of molecular generating and/or inducing functions” (priority 1994, dated 2004).
Like-named read-outs stand apart in the source and are kept apart here.

What was measured:
[1] = tested on: keratinocytes isolated from a human skin; experiment: Anti-cancer effect, cultured keratinocytes, microscopy; type: cell-based; details: 4 μl of Yoshixol
Excerpt: Adhesive factors between cells play an important role on prolifelation of malignant tumor cells and metastasis. In order to investigate the adhesive factors between cells, intracellular structure of cultured keratinocytes are utilized to observe. Thus, by using keratinocytes isolated from a human skin and cultured in this invention, structure between cells and cellular aspect of keratinocytes (5 days passed after culturing of second generation) were investigated by phase microscope (Olympus Co., IMT-2), transmission type (JEOL, Ltd. JEM 1200, EXII) and scanning type (JEOL, Ltd. JSM-6000F) electron microscopes. In the non-treated group with Yoshixol, the cultured cells proliferated monologously and in order as like as a stone wall. There were normal aspects of intracellular organella and mitosis. There were not blank spaces between cell and filling with intracellular matrix (referred FIGS. 16a, 17a). […] In addition, extracellular matrix has been also dispersed in an irregularity from cells as various sizes of particles (referred FIGS. 16b, 17b). […] And also, Yoshixol has an inhibitory effect of cell prolifelation and metastasis such as tumor cells. […]

thrombin = thrombin (Homo sapiens, UniProt P00734); experiment: Composition of amino acids in thrombin; type: biochemical; design: 1 ml of human thrombin before and after treatment with Yoshixol; details: did not exist before treatment; Yoshixol 4 μl
Experimental: (§1) Changes in composition of amino acids were analyzed by use of 1 ml of human blood serum, 1 ml of human fibrinogen (concentration of 160 mg/dl), 1 ml of human thrombin before and after treatment with Yoshixol (4 μl). The total amino acids in the human blood serum which was treated with Yoshixol decreased by 41%. And, ratio of each composition was altered after the treatment so that as an example the concentration of phosphoserine increased about 20 times which level was from 7.2 picomole to 164.8 picomole.

spermatozoa = experiment: Inhibitory effect on flagellum motility of spermatozoa; type: cell-based, japanese bull
Experimental: In order to investigate an effect of Yoshixol on a flagellum motility of spermatozoa, the spermatozoa (seed japanese bull ID: Sinmorihide<registration No.Zen-Wa-Kuro1114, lot No.84Y28>) which has been conserved in the liquid nitrogen was thawing at 35° C. After thawing, 1 ml of semen was transferred to Petori-schale (grainer lab. GmHB) and, flagellum motility was observed by a phase contrast microscopy (IMT-2, Olympus Co.) and was recorded by a video film via a collar video camera (CCD-IRIS, Sony Co.) so that wave cycles and speed of the flagellum were analyzed by an original software of dynamic state analyzer. […] However, though a flagellum movement was completely stopped, the rotation of the head which occurs at the centriole (near junction between head and tail) was found during a few 10 seconds. And, a speed of this rotation gradually was decelerated with progress of a time. […] Moreover, from the knowledge that these movements of cells are involved in microfilaments and microtubles which is constricted from the proteins assembly, a morphological change of this spermatozoa due to treatment with Yoshixol was investigated by transmission type (JEM1200, EXII, JEOL, Ltd.) and scanning type (JSM-6000F, JEOL, Ltd.) electron microscopy. The outside of normal flagellum with regular basic structure of 9+2 is enclosed with a cell membrane and, there was the axial filament which structure is related to a movement is observed inside. The axial filament has […] (centrum pair) that exist mainly on the center and nine double tubles that exist in a periphery (circumscription canaliculus). […] But, though morphological aspect as a whole of spermatozoa was not altered by the treatment with Yoshixol, many particles with a size of 10-30 nm on the surface were observed likely to be blowed out, when the surface structure of flagellum was investigated by a magnification. And also, ring formation likely to a doughnut in which region is contributed to the movement was not found and, adhesion of small particles were noticeable (referred FIG. 28). […]

human blood serum = experiment: Composition of amino acids in human blood serum; type: biochemical; details: Yoshixol 4 μl
Experimental: as §1

[2] = Softening and flexibility effect on skin; design: species or system rabbit and dog; details: histology, hematoxylin eosin staining
Experimental: In order to investigate changes of softening and flexibility on skin from rabbit and dog, each skin was is dipped in 5 ml of physiological saline with 10 μl of the test solution. This test solution was prepared from 88 ml of physiological saline with 2 ml of polyoxyethylene (20) sorbitan monoolate 1 (Wakou Jyunyaku Co.) that is identical to Tween80 (ICI Co.) as the basal solution of control. As the treated solution, 10 ml of Yoshixol was added in the basal solution. […] Surgical stitching by the needle was easily to be inserted and transfixed in the skin. […] And, the sample treated with Yoshixol was observed as the preparation which was made from a fresher sample by hematoxylin eosin staining in contrast to the skin sample treated with the test solution of control. Moreover, a similar observation on histological pictures of each sample was obtained even when each skin sample was thawed at 20° C. after storaging each sample at 4° C. in the refrigeration for one month.

[3] = tested on: methitilin resistance staphylococcus aureus, MRSA (stock no. SCK18); type: cell-based; details: for colony formation unit (CFU): 24-hour incubation at 37° C., initial 10^8, control 10^10
Candida albicans = experiment: Antifungal effect; type: cell-based; details: for CFU: 2 μl per 1 ml of culture medium, 10^6 CFU/ml, Sabouraud broth
[4] = 50 μl in the whole space of the schale, indirect contact, 24 hours, 37° C.

SMILES: C=C1CC(C)(C)C=CC1=O [Yoshixol, 4,4-dimethyl-6-methylene-2-cyclohexen-1-one]
- aspects of cultured cells ([1]; 5 days after culturing of second generation): showed diverse irregularity
- cell membrane and intracellular organella ([1]; electron microscopes): destroyed with varieties
- glutamic acid, taurine, methionine and aminoisobutylic acid in thrombin sample (thrombin): produced newly
- velocity of spermatozoa (spermatozoa; 1 μl of Yoshixol added to 1 ml semen, normal 0.3-1.5 mm per second): zero
- flagellum movement (spermatozoa; after 1 μl of Yoshixol was added to 1 ml semen): immediately inhibited
- morphological aspect as a whole of spermatozoa (spermatozoa; electron microscopy after treatment with Yoshixol): not altered
- decrease of total amino acids in human blood serum (human blood serum; 1 ml human blood serum): 41%
- increase of concentration of phosphoserine (human blood serum; human blood serum): about 20 times
- concentration of phosphoserine after treatment (human blood serum; human blood serum, before 7.2 picomole): 164.8 picomole
- structure damages of each skin [2]: did not found histologically
- colony formation unit (CFU) ([3]; 0.25 μl per 1 ml of culture medium): 10^4 CFU
- colony formation unit (CFU) ([3]; 2 μl per 1 ml of culture medium): 10^2 CFU
- colony formation unit (CFU) ([3]; 10 μl per 1 ml of culture medium): zero
- proliferation with evaporating component of Yoshixol [3, 4]: did not occur
- histological aspect of cell death, scanning electron microscopy ([3]; after Yoshixol): separated to an individual bacterial cell
- CFU (Candida albicans; after 1 hour): zero
- CFU (Candida albicans; after 3 hours incubated): zero
- proliferation with evaporating component of Yoshixol (Candida albicans; [4]): did not occur
